Results published in PMC10529643, “Discovery of ACE Inhibitory Peptides Derived from Green Coffee Using In Silico and In Vitro Methods” (Foods, 2023).
Like-named read-outs stand apart in the source and are kept apart here. Ends that are not written are not given here.

What was measured:
[1] = system: Angiotensin converting enzyme (ACE); test: In vitro ACE inhibitory activity assay with FAPGG substrate; format: biochemical; conditions: captopril at 0.1 μM, 37 °C, 30 min, absorbance 340 nm
Protocol: The peptides predicted with potential antihypertensive capacity were synthesized by GenScript. The ACE inhibitory capacity of hydrolysates and selected peptides were measured as previously described with minor modifications; 400 μL of samples (hydrolysates, synthesized peptides dissolved in the HEPES-NaCl buffer at a concentration of 1.25 mg/mL, 125 μM separately) were mixed with 100 μL of ACE (0.2 U/mL). After incubation of the mixture at 37 °C for 10 min, 500 μL of FAPGG was added and the absorbance value at 340 nm was detected instantly by a FlexStation 3 and recorded as A0 min. After being kept at 37 °C for 30 min, the absorbance value at 340 nm was detected again and recorded: ACE inhibitory rate%=∆Acontrol−∆Asample/∆Acontrol×100% where A0 min is the initial absorbance at 340 nm; A30 min is the absorbance at 340 nm after keeping at 37 °C for 30 min, and ΔA is the reduction in the absorbance: A0 min–A30 min.

pepsin = test: In vitro gastrointestinal digestion simulation, pepsin step, MS analysis; format: in vitro ADME; conditions: 1.0 mg/mL peptide, pepsin 1% E/S w/w, pH 2.0, 37 °C, 2 h; Q-TOF MS read-out
Protocol: (§1) In vitro gastrointestinal digestion simulation was performed according to the method described by Fan et al. with minor modifications. Two peptides (CP2, CP3) were dissolved in ultrapure water at 1.0 mg/mL, respectively. The solutions were adjusted to pH 2.0 with […]. Then, pepsin (1% E/S, w/w) was added to peptide solutions and the mixtures were incubated at 37 °C for 2 h. Half of the two digests were terminated in digestion by increasing the temperature to 90 °C. After the other half were adjusted to pH 7.5 with […], pancreatin (1% E/S, w/w) was added and the systems were digested at 37 °C for 2 h. The reactions were then stopped by boiling for 10 min. Subsequently, solvents were centrifuged at 10,000 rpm for 10 min. The supernatants were lyophilized to collect and analyzed using Agilent 6545 series Q-TOF mass spectrometer (Agilent, Waldbronn, Germany). The ACE inhibitory activity of the digested peptide solutions was determined under the same conditions.

pepsin-pancreatin = test: In vitro gastrointestinal digestion simulation, pepsin then pancreatin, MS analysis; format: in vitro ADME; conditions: pepsin pH 2.0, 37 °C, 2 h then pancreatin 1% E/S w/w, pH 7.5, 37 °C, Q-TOF MS read-out
Protocol: as §1

ACE = conditions: cited from earlier work

## C[C@H](CS)C(=O)N1CCC[C@H]1C(=O)O [Captopril, captopril]
[1]
  ACE inhibition (%): 97.5%

## IIPNEVY [CP2]
pepsin
  stability against pepsin digestion: well resistant in gastric digestion
pepsin-pancreatin
  stability against successive pepsin and pancreatin digestion: new peptide sequences were detected

## ITPPVMLPP [CP3]
pepsin
  stability against pepsin digestion: Only a small amount of CP3 was degraded
pepsin-pancreatin
  stability against successive pepsin and pancreatin digestion: Great changes in the MS analysis

## QAGLSPVR
ACE; from tilapia skin gelatin
  ACE inhibition pattern: noncompetitive

## QLDL
ACE; from the mycelia of Ganoderma Lucidum
  ACE inhibition pattern: noncompetitive

## VFDGVLRPGQ
ACE; from rice bran protein
  ACE inhibition pattern: noncompetitive

## VGLPPNSR
ACE; from tilapia skin gelatin
  ACE inhibition pattern: noncompetitive
